Assay results from patent US9913838B2, “Methods of treating cancer using compositions comprising perillyl alcohol derivative” (NEONC TECHNOLOGIES INC., priority 2010, dated 2018).
Entries after “also recorded” stand apart in the source; their conditions may differ.

What was measured:
A172 human glioma cells = test: MTT cytotoxicity assay, A172 glioma cells; details: A172; result in words
Description: (§1) In vitro efficacy of the present composition can be determined using methods well known in the art. For example, the cytoxicity of the present monoterpene (or sesquiterpene) and/or the therapeutic agents may be studied by MTT [3-(4,5-dimethylthiazol-2-yl)-2,5-diphenyl tetrazolium bromide] cytotoxicity assay. MTT assay is based on the principle of uptake of MTT, a tetrazolium salt, by metabolically active cells where it is metabolized into a blue colored formazon product, which can be read spectrometrically. J. of Immunological Methods 65: 55 63, 1983. The cytoxicity of the present monoterpene (or sesquiterpene) derivative and/or the therapeutic agents may be studied by colony formation assay. Functional assays for inhibition of VEGF secretion and IL-8 secretion may be performed via ELISA. Cell cycle block by the present monoterpene (or sesquiterpene) derivative and/or the therapeutic agents may be studied by standard propidium iodide (PI) staining and flow cytometry. Invasion inhibition may be studied by Boyden chambers. In this assay a layer of reconstituted basement membrane, Matrigel, is coated onto chemotaxis filters and acts as a barrier to the migration of cells in the Boyden chambers. Only cells with invasive capacity can cross the Matrigel barrier. Other assays include, but are not limited to cell viability assays, apoptosis assays, and morphological assays.
(§2) First cytotoxicity assays were carried out after cells were treated with dimethyl-celecoxib (DMC) alone.
(§3) Then U87, A172 and U251 cells were treated with dimethyl celecoxib bisPOH carbamate (POH−DMC) (e.g., synthesized by the method in Example 1), and the MTT cytotoxicity assays performed (FIG. 2).
(§4) First cytotoxicity assays were carried out after cells were treated with temozolomide (TMZ) alone, the standard alkylating agent used in the treatment of malignant gliomas.
(§5) Then TMZ-resistant glioma cell lines U87, A172 and U251 cells were treated with TMZ-POH (e.g., synthesized by the method in Example 3).
(§6) To compare the cytotoxicity of Rolipram POH Carbamate (POH-Rolipram) (e.g., synthesized by the method in Example 5) with rolipram, […] inducing differentiation and apoptosis in glioma cells, A172, U87, U251 and LN229 human glioma cells were treated with either POH-Rolipram or rolipram for 48 hours.

MGMT = test: Western blot of MGMT protein levels in MDA-MB-468 cells; format: cell-based, human; details: in words
Protocol: In FIG. 21C, MDA-MB-468 cells were treated with the indicated concentrations of TMZ-POH, TMZ, or O6-BG for 17 hours before harvest of cellular lysates. vh.=cells treated with vehicle only.
Total cell lysates were analyzed by Western blot analysis as described in P. Pyrko et al. Downregulation of survivin expression and concomitant induction of apoptosis by celecoxib and its non-cyclooxygenase-2-inhibitory analog, dimethyl-celecoxib (DMC), in tumor cells in vitro and in vivo. Mol Cancer 5 (2006) 19. The primary antibodies were purchased from Cell Signaling Technology (Beverly, Mass.) or Santa Cruz Biotechnology, Inc. (Santa Cruz, Calif.) and used according to the manufacturers' recommendations. All immunoblots were repeated at least once to confirm the results.
The major cytotoxic DNA lesion set by TMZ is methylation of O6-guanine, and it is well known that removal of this methyl group by MGMT leads to rapid degradation of the DNA repair protein.

MDA-MB-231 cells = test: Determination of drug stability by colony formation assay; format: cell-based, human; details: for colony survival: drugs in the medium for 24 hours; for reduction of colony formation: one-hour exposure; for survival: two-hour exposure; for reduction of survival: added straight to cells, 24 hours; for colony-forming ability of receiving cells: supernatant transferred after prior one-hour incubation
Protocol: FIGS. 26A-26C depicts determination of drug stability, where MDA-MB-231 cells were analyzed in colony formation assays. In FIG. 26A, cells were treated with 15 μM TMZ-POH or 30 μM TMZ for 30 min or 1, 2, 4, and 24 hours. Thereafter, drug-containing medium was removed, fresh medium (without drug) was added, and cells remained undisturbed until colony staining 12 days later. The arrows indicate which cells received which supernatant. After 24 hours of incubation, all drug-containing medium was removed, fresh medium (without drug) was added, and cells remained undisturbed until colony staining 12 days later. […] Left panel (untreated): control cells without drug treatment. Middle panel (0-24 h): Cells received 15 μM TMZ-POH or 30 μM TMZ for 24 hours. Right panel (1-25 h): TMZ-POH and TMZ were incubated in neutral buffer at 37° C. for 1 hour before addition to cells to a final concentration of 15 μM TMZ-POH and 30 μM TMZ for 24 hours.
TMZ is a prodrug, and it is well known that its activation takes place spontaneously in aqueous solution at 37° C. (i.e., no cellular functions are required for this conversion). As well, the half-lives of both prodrug and active product are fairly short, where all cytotoxic triggers are set within the first few hours of treatment. […] First, we exposed cells to variably short periods of drug treatment, washed off the drug, and then continued to keep cells in medium without drug to determine survival and colony-forming ability. For most of these experiments, we used 15 μM TMZ-POH and 30 μM TMZ, because these concentrations are approximately equipotent in the >90% cytotoxicity range (when measured by CFAs and a drug exposure time of 24 hours).
Thus, TMZ acted more quickly than TMZ-POH; it required only 4 hours to exert maximum toxicity, whereas TMZ-POH had not yet reached its maximum impact at this time point.
We next modified this experiment as follows. After cells had been exposed to drug treatment for the specific times shown in FIG. 26A, we removed the medium containing the drug from the cells, and transferred this supernatant to fresh cells, which were then exposed for 24 hours. […] In contrast, when supernatant was transferred after prior one-hour incubation, colony-forming ability of receiving cells was 48% in cells receiving TMZ-containing supernatant, and 22% in TMZ-POH-containing supernatant.
To exclude the involvement of cellular enzymes in the turnover of TMZ-POH, we incubated TMZ-POH (and TMZ) in phosphate-buffered saline at 37° C. for one hour (in the absence of cells). After this pre-incubation, TMZ-POH and TMZ were added to cells for 24 hours, and survival was determined by CFA. As a control, both drugs were also added to cells without prior incubation in aqueous solution. A representative CFA is shown in FIG. 26C, where the middle panel confirms that both drugs were used at approximately equipotent concentrations; i.e., when added straight to cells, they reduced survival by ˜95%. However, pre-incubation in aqueous solution for only one hour preempted the cytotoxic potency of TMZ by about 50%, but that of TMZ-POH much less (80% remaining; see right panel).

U251 human glioma cells = test: MTT cytotoxicity assay, U251 glioma cells; details: U251; result in words
Description: as §1, §2, §3, §4, §5, §6
MTT cytotoxicity assays were carried out after cells were treated with the TMZ-POH conjugate. The MTT cytotoxicity assays were carried out as described in Chen T C, et al. Green tea epigallocatechin gallate enhances therapeutic efficacy of temozolomide in orthotopic mouse glioblastoma models. Cancer Lett. 2011 Mar. 28; 302(2):100-8.

Compound | cytotoxicity (MTT assay) (A172 human glioma cells) | MGMT protein levels (MGMT; MDA-MB-468, 50 μM, 17 hours) | colony survival (MDA-MB-231 cells; 15 μM TMZ-POH or 30 μM TMZ) | reduction of colony formation (MDA-MB-231 cells; 15 μM TMZ-POH or 30 μM TMZ) [%] | survival (MDA-MB-231 cells; 15 μM TMZ-POH or 30 μM TMZ) [%] | reduction of survival (MDA-MB-231 cells; 15 μM TMZ-POH or 30 μM TMZ) [%] | colony-forming ability of receiving cells (MDA-MB-231 cells) [%] | cytotoxicity (MTT assay) (U251 human glioma cells) | MGMT protein levels (MGMT; MDA-MB-468, 17 hours) | time required to exert maximum toxicity (MDA-MB-231 cells; 15 μM TMZ-POH or 30 μM TMZ) [h] | stability / retention of cytotoxic potency (MDA-MB-231 cells; in words) | cytotoxic potency remaining after pre-incubation (MDA-MB-231 cells; phosphate-buffered saline at 37° C. for one hour, absence of cells) [%] | cytotoxic activity of supernatant transferred after prior 24-hours of incubation (MDA-MB-231 cells; receiving cells exposed 24 hours, in words)
Cn1nnc2c(C(N)=O)ncn2c1=O [TMZ, temozolomide, reference compound] | minimal cytotoxicity | no effect | ~8% | > 50 | 23 | ~95 | 48 | minimal cytotoxicity |  |  |  |  | 
C=C(C)[C@@H]1CC=C(COC(=O)NC(=O)c2ncn3c(=O)n(C)nnc23)CC1 [TMZ-POH] | substantially higher kill rates | significant decrease | about 3% | 20 | 51 | ~95 | 22 | substantially higher kill rates; also recorded: demonstrated cytotoxicity | affects MGMT levels more potently than TMZ | > 4 | retained its cytotoxic potency substantially longer than TMZ; also recorded: more stable than TMZ | 80 | no cytotoxic activity remained
